Assay results published in patent US6911478B2, “Nitric oxide-releasing amidine- and enamine-derived diazeniumdiolates, compositions and uses thereof and method of making same” (The United States of America as represented by the …, priority 1997, dated 2005).

Assays:
Format in all cases: physicochemical
[1] = time course of NO production in phosphate buffer pH 7.4 at 37° C., chemiluminescence detector; conditions: phosphate buffer pH 7.4, 37° C.; for initial NO release rate: start of experiment
Protocol: This example describes the measurement of the time course of NO production by amidine and enamine nitric oxide adducts.
The NO release rate was measured periodically by flushing the solution with inert N2 gas and then sweeping newly generated NO into a chemiluminescence detector and integrating the signal produced over the next 4-7 mins. NO release was measured over a period of two weeks.
None of these compounds released nitric oxide via a single pathway which produced a release profile consistent with first order kinetics. Accordingly, the results of each test are summarized here by giving the initial NO release rate, the rate at one intermediate timepoint and the total time of observed NO release for representative examples.

[2] = production of NO and N2O by amidine/nitric oxide adducts, headspace chemiluminescence (NO) and gas chromatography (N2O); conditions: for Yield N2O / Yield NO: headspace; for Yield N2O: gas chromatography; for Yield NO: chemiluminescence
From the text: (§1) Nitrous oxide (N2O), being the end product of HNO dimerization and dehydration, provided a measure of HNO production via the equation (Nagasawa et al., J. Med. Chem. 33: 3122-3124 (1990)): [drawing 12]
This example describes the measurement of the production of NO and N2O by amidine/nitric oxide adducts.

[3] = gas evolution on dissolving in water and acidifying; conditions: dissolved in water and acidified
From the text: as §1

## tetrahydrozoline bis(nitric oxide)adduct [Example 6]
[1]
  total time of observed NO release (in words): continued for several weeks
  initial NO release rate: 3.64×10^−11 moles NO/min./mg.
[1]; 15 days after the beginning
  NO release rate, last quantitative measurement: 9.00×10^−12 moles NO per min. per mg.
[1]; after 7 days
  NO release rate after 7 days: 2.06×10^−11 moles NO per min. per mg.

## O=NN(O)C1(C2=NCCN2)CCCCC1 [Example 5, 2-cyclohexyl-2-imidazoline bis(nitric oxide)adduct]
[2]; 0.1 N HCl
  Yield N2O: 0.2 moles per mole cmpd

## idazoxan-bis(nitric oxide) adduct [Example 7]
[1]
  time at which NO release reached zero: ≤ 16 days
  initial NO release rate: 5.25×10^−11 moles NO/min./mg.
[1]; after 4 days (gradually increased)
  NO release rate after 4 days: 1.41×10^−10 moles NO/min./mg.

## 2-methyl-2-imidazoline tetrakis(nitric oxide)adduct [Example 2]
[2]; 0.1 N HCl
  Yield NO: 0.45 moles per mole cmpd
  Yield N2O: 0.9 moles per mole cmpd
[2]; pH 7.4, NO by chemiluminescence, N2O by gas chromatography
  composition of evolving gas (NO and N2O): 2 parts NO (determined by chemiluminescence) and 1 part N2O
[3]
  gas evolution: voluminous gas evolution

## isobutyraldehyde morpholine enamine bis (nitric oxide) adduct [Example 10]
[1]
  time at which NO release reached zero: 7 days
  initial NO release rate: 3.7×10^−11 moles NO/min./mg.
[1]; remained at about this level for 4 days
  NO release rate after rapid decrease: 7.0×10^−12 mole NO/min./mg.

## acetamidine tetrakis (nitric oxide) adduct [Example 3]
[2]; pH 7.4 buffer
  Yield NO: 0.05 moles per mole cmpd
  Yield N2O: 0.64 moles per mole cmpd

## 2-iminopiperidine bis(nitric oxide)adduct [Example 4]
[2]; pH 7.4 buffer
  Yield NO: −0.08 moles per mole cmpd
  Yield N2O: 0.45 moles per mole cmpd

## cyclohexanone morpholine enamine bis(nitric oxide) adduct [Example 9]
[1]
  NO release profile, kinetic order: nearly first order kinetics
  time at which NO release reached zero: ≤ 7 days
  initial NO release rate: 4.2×10^−11 moles NO/min./mg.
[1]; after 3 days
  NO release rate after 3 days: 1.8×10^−11 mole NO/min./mg.
